In ChEMBL document CHEMBL1201862, “PubChem BioAssay data set” (2004):
The source made the active and inactive calls. Cut-off read from the data, not from the text of the source, for most assays here: actives have a measured EC50 and inactives only a lower limit.

Tests used:
[1] = target: Nonstructural protein 1 (Influenza A virus, UniProt Q194T2); type: functional, Influenza A virus (A/California/07/2009(H1N1))
[2] = target: Genome polyprotein (dengue virus type 2, UniProt P29990); assay: Dengue-2 NS5 methyltransferase inhibitors, primary screen, biochemical, confirmation dose response (AID 588689); type: functional
Genome polyprotein, sequence (P29990 2492-3391 limits assumed): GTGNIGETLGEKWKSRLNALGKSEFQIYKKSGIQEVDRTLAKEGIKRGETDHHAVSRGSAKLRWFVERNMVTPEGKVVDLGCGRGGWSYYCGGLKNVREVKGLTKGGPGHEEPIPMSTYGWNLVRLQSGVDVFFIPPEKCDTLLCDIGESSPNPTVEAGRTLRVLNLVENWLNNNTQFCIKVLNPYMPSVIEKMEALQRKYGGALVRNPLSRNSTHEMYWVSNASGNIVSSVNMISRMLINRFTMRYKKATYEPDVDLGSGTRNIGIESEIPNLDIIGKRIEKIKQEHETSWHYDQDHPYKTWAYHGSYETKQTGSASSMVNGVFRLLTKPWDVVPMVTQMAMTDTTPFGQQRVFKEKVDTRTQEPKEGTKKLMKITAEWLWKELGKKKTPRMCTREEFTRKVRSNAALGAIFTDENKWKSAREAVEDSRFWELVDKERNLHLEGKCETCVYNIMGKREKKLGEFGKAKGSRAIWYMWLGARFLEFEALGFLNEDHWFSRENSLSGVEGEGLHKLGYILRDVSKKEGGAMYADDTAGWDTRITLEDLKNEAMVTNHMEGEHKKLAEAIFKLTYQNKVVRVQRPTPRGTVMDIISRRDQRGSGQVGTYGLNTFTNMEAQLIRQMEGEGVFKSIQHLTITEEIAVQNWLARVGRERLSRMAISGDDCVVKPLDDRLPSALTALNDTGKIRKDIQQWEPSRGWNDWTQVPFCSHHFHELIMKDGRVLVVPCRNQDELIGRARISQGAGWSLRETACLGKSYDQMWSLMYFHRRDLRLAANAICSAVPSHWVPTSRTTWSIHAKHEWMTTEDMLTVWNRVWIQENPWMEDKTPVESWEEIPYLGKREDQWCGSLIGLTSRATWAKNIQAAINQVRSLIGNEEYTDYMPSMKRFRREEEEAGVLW

[3] = target: T1, RNA-binding protein pos-1 (Caenorhabditis elegans, UniProt G5EF15); assay: inhibitors of POS-1/mex-3 RNA binding, dose response, biochemical, fluorescence polarization (AID 1964);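 note: purified POS-1 fused to maltose binding protein made in E. coli; potency of compounds blocking POS-1 binding to fluorescent RNA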
T1 sequence (G5EF15 whole entry): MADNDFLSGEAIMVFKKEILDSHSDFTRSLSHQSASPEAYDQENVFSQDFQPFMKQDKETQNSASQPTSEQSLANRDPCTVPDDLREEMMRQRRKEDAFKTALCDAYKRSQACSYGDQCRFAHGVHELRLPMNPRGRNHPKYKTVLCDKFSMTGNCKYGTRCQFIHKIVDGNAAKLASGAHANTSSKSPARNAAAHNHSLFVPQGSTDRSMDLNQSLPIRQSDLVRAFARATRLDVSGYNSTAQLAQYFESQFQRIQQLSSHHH

[4] = target: T2, Zinc finger protein mex-5 (Caenorhabditis elegans, UniProt Q9XUB2); assay: MEX-5/TCR-2 RNA interaction inhibitors, dose response, biochemical, C. elegans, fluorescence polarization (AID 1960)
T2 sequence (Q9XUB2 whole entry): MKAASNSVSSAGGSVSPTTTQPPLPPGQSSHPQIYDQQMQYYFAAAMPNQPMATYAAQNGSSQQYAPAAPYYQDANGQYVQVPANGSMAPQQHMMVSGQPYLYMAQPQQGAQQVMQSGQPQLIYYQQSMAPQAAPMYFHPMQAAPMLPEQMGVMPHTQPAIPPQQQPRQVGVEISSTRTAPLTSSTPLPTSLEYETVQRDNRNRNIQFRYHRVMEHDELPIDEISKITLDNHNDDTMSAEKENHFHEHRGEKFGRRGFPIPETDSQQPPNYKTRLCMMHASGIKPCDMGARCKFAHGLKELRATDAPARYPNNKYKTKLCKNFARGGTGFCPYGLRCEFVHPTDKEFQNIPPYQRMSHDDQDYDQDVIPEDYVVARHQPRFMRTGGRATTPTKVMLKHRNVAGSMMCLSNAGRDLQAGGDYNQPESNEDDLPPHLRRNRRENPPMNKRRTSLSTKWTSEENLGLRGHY

[5] = Luminescence Cell-Based Dose Response HTS to Identify Inhibitors of 5'UTR Stem-Loop Driven Prion Protein mRNA Translation in H4 Neuroglioblastoma Cells. [Related pubchem assays: 1827 (Project Summary), 1813 (Primary HTS)]; type: functional
[6] = inhibitors of SNCA 5'UTR-driven reporter translation, confirmation, H4 neuroglioma cells, luminescence (AID 1988); type: functional, cell-based
[7] = inhibitors of firefly luciferase expression or activity, dose response, H4 neuroglioma cells, luminescence (AID 1990); type: functional, cell-based
[8] = microbe, parasite or virus in culture; type: functional; conditions: Mycobacterium tuberculosis
[9] = system: INS1; assay: beta cell apoptosis inhibitors, cytokine rescue, dose response, luminescence, retest (AID 449756); type: functional, cell-based; conditions: Rattus norvegicus;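 note: cell death triggered by IL-1 beta plus TNF-alpha plus IFN-gamma mixture; protective hits raise ATP signal compared with cytokine alone wells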
[10] = cytotoxicity in KRAS-transformed pancreatic duct cells, primary screen, cell-based, fluorescence, HTS (AID 431); type: functional; conditions: Homo sapiens;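 note: cell line used: HPDE-C7K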
[11] = cytotoxicity in HPDE-C7 cells, cell-based, fluorescence, HTS (AID 430); type: functional; conditions: Homo sapiens
[12] = system: Streptococcus sp. 'group A'; assay: growth inhibition of control SK(-) GAS strain, dose response, counter-screen for streptokinase expression inhibitor project, luminescence, kanamycin, BacTiterGlo, confirmation (AID 1900); type: functional, organism-based
[13] = system: Streptococcus; assay: Group A Streptococcus viability loss, dose response, counter-screen for streptokinase expression inhibitor project, luminescence, BacTiterGlo (AID 1915); type: functional, organism-based;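 note: potency for reduction of bacterial viability or growth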
[14] = cytotoxicity toward NIH3T3 fibroblasts, dose response, counter-screen, cell-based, ATP luminescence, mouse fibroblasts (AID 2010); type: functional;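 note: cells exposed to compound for about 90 hours before reading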
[15] = inhibitors of intracellular T. cruzi replication, confirmation, NIH3T3 host cells, beta-gal luminescence (AID 2044); type: functional, cell-based;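 note: intracellular parasites grown in NIH/3T3 mouse fibroblasts as host cells; luminescent beta-galactosidase reporter signal from transgenic T. cruzi replicating inside host cells; inhibitors lower the luminescence signal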
[16] = target: Induced myeloid leukemia cell differentiation protein Mcl-1 (Homo sapiens, UniProt Q07820); type: functional
Induced myeloid leukemia cell differentiation protein Mcl-1, sequence (Q07820 whole entry): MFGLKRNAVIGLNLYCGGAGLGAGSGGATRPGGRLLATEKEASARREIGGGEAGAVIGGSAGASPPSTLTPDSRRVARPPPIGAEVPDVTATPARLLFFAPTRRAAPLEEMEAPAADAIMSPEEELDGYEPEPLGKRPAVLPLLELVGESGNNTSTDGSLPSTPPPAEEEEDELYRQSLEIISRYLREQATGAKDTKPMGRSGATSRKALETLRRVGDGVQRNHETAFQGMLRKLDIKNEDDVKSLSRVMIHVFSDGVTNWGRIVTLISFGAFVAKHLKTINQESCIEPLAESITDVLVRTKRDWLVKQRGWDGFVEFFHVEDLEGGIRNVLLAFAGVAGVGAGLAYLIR

[17] = target: Heat shock protein HSP 90-alpha (Homo sapiens, UniProt P07900); type: functional, organism-based
[18] = Luminescence Cell-Based Dose Confirmation HTS to Identify Inhibitors of Platelet Dense Granule Release. [Related pubchem assays: 1663 (Primary HTS), 1678 (Summary of Project)]; type: functional
[19] = target: Luciferin 4-monooxygenase (Photinus pyralis, UniProt P08659); assay: firefly luciferase enzyme inhibitors, dose response, biochemical, luminescence (AID 1891)
Luciferin 4-monooxygenase, sequence (P08659 whole entry): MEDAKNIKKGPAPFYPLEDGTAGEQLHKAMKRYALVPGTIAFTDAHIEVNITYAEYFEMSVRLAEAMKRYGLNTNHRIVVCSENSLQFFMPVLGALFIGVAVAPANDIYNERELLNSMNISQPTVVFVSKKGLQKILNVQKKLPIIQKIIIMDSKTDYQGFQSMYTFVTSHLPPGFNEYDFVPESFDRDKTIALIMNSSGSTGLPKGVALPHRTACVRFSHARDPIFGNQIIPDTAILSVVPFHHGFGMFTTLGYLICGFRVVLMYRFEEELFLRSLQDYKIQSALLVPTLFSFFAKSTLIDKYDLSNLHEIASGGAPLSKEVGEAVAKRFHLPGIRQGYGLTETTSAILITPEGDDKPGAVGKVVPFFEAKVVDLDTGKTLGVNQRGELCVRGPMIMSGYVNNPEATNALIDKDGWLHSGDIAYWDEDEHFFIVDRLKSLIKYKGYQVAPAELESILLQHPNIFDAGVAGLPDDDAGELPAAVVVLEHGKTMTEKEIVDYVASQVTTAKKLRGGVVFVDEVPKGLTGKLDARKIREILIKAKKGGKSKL

[20] = target: T3, Histone-lysine N-methyltransferase NSD2 (Homo sapiens, UniProt O96028); type: biochemical
T3 sequence (O96028 whole entry): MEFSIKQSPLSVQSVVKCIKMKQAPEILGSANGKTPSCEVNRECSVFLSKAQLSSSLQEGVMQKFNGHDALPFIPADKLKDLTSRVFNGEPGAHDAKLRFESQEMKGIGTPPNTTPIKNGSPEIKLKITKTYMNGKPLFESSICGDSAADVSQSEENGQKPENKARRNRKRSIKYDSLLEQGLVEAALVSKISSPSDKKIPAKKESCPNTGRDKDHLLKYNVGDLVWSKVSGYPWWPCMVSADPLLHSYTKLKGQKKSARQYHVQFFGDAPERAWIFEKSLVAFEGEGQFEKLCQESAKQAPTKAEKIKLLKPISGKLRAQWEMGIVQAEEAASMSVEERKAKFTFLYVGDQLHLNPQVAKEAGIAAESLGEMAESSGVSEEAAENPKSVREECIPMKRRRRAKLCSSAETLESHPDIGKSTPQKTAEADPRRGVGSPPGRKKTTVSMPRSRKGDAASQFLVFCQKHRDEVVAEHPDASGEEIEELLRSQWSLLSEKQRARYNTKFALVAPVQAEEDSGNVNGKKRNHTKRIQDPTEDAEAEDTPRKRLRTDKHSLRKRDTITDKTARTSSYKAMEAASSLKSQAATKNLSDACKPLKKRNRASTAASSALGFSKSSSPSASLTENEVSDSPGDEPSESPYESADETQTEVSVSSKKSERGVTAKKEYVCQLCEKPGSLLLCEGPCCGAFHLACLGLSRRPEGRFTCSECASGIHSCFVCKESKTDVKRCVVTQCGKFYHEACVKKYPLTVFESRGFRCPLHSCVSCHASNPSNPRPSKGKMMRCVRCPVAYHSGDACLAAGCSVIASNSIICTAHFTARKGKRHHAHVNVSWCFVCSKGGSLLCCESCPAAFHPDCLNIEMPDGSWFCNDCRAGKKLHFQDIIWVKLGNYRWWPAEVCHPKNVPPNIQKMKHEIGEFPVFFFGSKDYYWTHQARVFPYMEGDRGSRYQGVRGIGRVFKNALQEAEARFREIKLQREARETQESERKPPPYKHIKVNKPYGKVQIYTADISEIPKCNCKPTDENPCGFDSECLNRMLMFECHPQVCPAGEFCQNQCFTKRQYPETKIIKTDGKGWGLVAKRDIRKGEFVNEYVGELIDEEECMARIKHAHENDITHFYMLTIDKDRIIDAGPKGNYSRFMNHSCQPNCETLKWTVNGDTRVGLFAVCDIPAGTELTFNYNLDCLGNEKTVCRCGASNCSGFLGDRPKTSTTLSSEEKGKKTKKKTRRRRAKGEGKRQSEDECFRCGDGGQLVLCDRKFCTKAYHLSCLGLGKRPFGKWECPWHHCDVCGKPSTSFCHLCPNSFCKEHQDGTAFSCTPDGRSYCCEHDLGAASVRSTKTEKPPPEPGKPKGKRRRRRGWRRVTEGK

[21] = target: T4, Leucine aminopeptidase (Plasmodium falciparum 3D7, UniProt Q8IL11); assay: P. falciparum M17LAP inhibitors, primary screen, biochemical, fluorogenic H-Leu-NHMec substrate, 1536-well (AID 1619); type: functional
T4 sequence (Q8IL11 whole entry): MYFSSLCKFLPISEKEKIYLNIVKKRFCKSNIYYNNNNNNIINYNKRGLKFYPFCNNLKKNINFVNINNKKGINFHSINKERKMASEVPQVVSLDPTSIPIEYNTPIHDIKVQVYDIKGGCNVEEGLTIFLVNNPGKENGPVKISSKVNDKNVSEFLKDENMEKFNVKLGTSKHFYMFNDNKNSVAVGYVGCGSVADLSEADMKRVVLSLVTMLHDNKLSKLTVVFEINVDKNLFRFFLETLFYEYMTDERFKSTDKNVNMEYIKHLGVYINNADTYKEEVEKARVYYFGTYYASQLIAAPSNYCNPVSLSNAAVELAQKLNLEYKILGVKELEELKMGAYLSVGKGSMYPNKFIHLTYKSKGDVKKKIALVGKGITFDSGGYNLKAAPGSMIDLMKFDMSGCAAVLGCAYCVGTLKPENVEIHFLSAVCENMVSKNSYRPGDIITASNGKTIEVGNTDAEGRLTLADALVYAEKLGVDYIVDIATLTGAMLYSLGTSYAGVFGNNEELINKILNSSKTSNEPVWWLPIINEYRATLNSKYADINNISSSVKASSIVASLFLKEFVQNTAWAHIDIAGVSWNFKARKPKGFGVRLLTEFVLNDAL

[22] = target: T5, Carboxy-terminal domain RNA polymerase II polypeptide A small phosphatase 1 (Homo sapiens, UniProt Q9GZU7); assay: inhibitors of CTDSP1, concentration-response testing, biochemical assay, absorbance-based, actives from ultra-high-throughput screening (AID 540297); type: functional
T5 sequence (Q9GZU7 whole entry): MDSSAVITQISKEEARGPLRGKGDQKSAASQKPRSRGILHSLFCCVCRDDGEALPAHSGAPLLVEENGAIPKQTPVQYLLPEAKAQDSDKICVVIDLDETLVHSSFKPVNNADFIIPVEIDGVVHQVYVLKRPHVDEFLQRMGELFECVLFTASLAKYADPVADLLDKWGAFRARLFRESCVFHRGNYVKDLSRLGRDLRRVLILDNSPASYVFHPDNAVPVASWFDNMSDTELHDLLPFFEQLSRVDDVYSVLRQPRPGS

[23] = growth suppression of beta-catenin-knockout colon cells, dose response, cell-based, HCT116, human colon tumor (AID 1045); type: functional;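 note: HCT116 colon tumor cells with beta catenin knocked out; cells exposed to compound for 60 hours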
[24] = growth suppression of PTEN-null colon cells, dose response, cell-based, HCT116 PTEN knockout (AID 1047); type: functional;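 note: HCT116 colon tumor cells with PTEN knocked out; cells exposed to compound for 60 hours before readout; potency for loss of cell viability measured by luminescence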

Nonstructural protein 1, sequence (Q194T2 whole entry): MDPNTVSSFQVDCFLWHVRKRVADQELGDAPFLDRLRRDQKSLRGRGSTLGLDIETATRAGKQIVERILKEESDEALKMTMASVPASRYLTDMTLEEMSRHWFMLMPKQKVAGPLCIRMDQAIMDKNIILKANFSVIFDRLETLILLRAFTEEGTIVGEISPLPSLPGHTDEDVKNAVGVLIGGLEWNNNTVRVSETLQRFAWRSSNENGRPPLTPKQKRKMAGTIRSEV

## Cc1cc(NC(=O)CSc2nnc(-c3ccco3)o2)no1
[1]
  IC50: 32.4 µM (active)

## O=C(O)CN1C(=O)/C(=C\c2cccc(OCc3ccc(F)cc3)c2)SC1=S
[2]
  IC50: 42.6 µM (active)

## O=C1C([N-]S(=O)(=O)c2cccs2)=C([n+]2ccc(CCCc3ccccc3)cc2)C(=O)c2ccccc21
[3]
  EC50: 119 µM (active)
[4]
  EC50: 97 µM (active)
[5]
  EC50: > 120 µM (not active)
[6]
  EC50: 8.36 µM (active)
[7]
  EC50: 10.5 µM (active)
[8]
  CC50: 9.69 µM (active)
[9]
  AC50: 8.75 µM (active)

## CC(C)(C)OC(=O)N[C@@H](Cc1ccccc1)c1nnc(S(=O)(=O)Cc2ccccc2)o1
[10]
  EC50: > 20 µM (not active)
[11]
  EC50: 16.9 µM (active)

## Oc1ccc(CN2CCN(c3ccccc3)CC2)c2cccnc12
[12]
  EC50: 5.48 µM (active)
[1]
  IC50: 59.1 µM (active)
[5]
  EC50: 9.95 µM (active)
[13]
  EC50: 7.49 µM (active)
[14]
  EC50: > 60 µM (not active)
[6]
  EC50: 9.72 µM (active)
[15]
  EC50: 1.86 µM (active)
[7]
  EC50: 11.9 µM (active)

## O=C(COC(=O)c1cc(-c2ccco2)nc2ccccc12)NCc1ccc2c(c1)OCO2
[16]
  IC50: < 0.4 µM (active)

## O=C(Cn1nc(C(=O)O)c2ccccc2c1=O)Nc1ccc2c(c1)C(=O)c1ccccc1C2=O
[16]
  IC50: 4.02 µM (active)

## COC(=O)c1ccc(N2C(=O)CC(N(C)Cc3ccccc3)C2=O)cc1 (stereo not drawn)
[17]
  AC50: 7.7 µM (active)

## Oc1nccc(N/N=C/c2ccccc2O)n1
[1]
  IC50: 10.3 µM (active)
[18]
  EC50: 4.11 µM (active)
[9]
  AC50: 0.625 µM (active)
[19]
  EC50: 36.3 µM (active)

## Cc1ccc2c(c1)c1ncnc(N3CCc4ccccc4C3)c1n2C
[8]
  CC50: > 40 µM (active)
[10]
  EC50: 11.7 µM (active)
[11]
  EC50: 11.4 µM (active)

## Cc1cc(C)c(S(=O)(=O)NCC23C=CC(O2)C2C(=O)N(c4ccccc4)C(=O)C23)c(C)c1 (stereo not drawn)
[17]
  AC50: 10.1 µM (active)

## Cc1cc(/C=C(/C#N)c2nc3ccccc3[nH]2)c(C)n1-c1cc(C(=O)O)cc(C(=O)O)c1
[3]
  EC50: 59.3 µM (active)
[20]
  AC50: > 20 µM (inactive)
[4]
  EC50: 41.4 µM (active)
[21]
  IC50: 42.6 µM (active)
[22]
  IC50: 5.68 µM (active)

## O=C1NC(=O)C(=Cc2ccccc2[N+](=O)[O-])C(=O)N1
[2]
  IC50: 27.3 µM (active)

## COc1ccccc1/C=C1\SC(=S)N(NS(=O)(=O)c2ccc(C)cc2)C1=O
[2]
  IC50: 34.7 µM (active)

## CN1c2ccccc2C(C)(C)C12C=Cc1cc(O)ccc1O2 (stereo not drawn)
[23]
  EC50: 18.4 µM (active)
[24]
  EC50: 36.4 µM (active)
[10]
  EC50: > 20 µM (not active)
[11]
  EC50: 15.2 µM (active)

## O=C1CC2CCCN2C=C1I (stereo not drawn)
[2]
  IC50: 62.7 µM (active)
[22]
  IC50: 5.48 µM (active)
